Like-named read-outs stand apart in the source and are kept apart here.

Experimental findings from patent publication US11753373B2, “Protease inhibitors as antivirals” (priority 2021, dated 2023) are described below.

Data set [1] addresses SARS-CoV-2 M^pro (3CL protease) (Severe acute respiratory syndrome coronavirus 2 (2019-nCoV) (SARS-CoV-2), UniProt P0DTD1). In kind it is biochemical. The following applies: read-out: SARS-CoV-2M^pro inhibition IC50.
Data set [2] is classed as in vitro ADME, Human. The following applies: extraction ratio, compound at 1 uM, human liver microsomes 0.5 mg/mL. The procedure: (§1) Metabolic stability of novel protease inhibitors was determined via liver microsomal stability assay. Human, mouse, SD rat, beagle dog or monkey liver microsomes were incubated with the test compound for 5 to 60 minutes at 37° C., and then the remaining parent compound was quantified by LC-MS/MS. Percentage of the test compound remaining, half-life (t1/2), in vitro intrinsic clearance (CLint, in vitro), in vivo intrinsic clearance (CLint, in vivo), hepatic clearance (CLh) and extraction ratio (ER) were calculated.
(§2) Procedure: The assay was done as described in Baranczewski, P. et al. (2006) Pharmacological Reports 58:453-472; Pearson, P. and Wienkers, L. (2008) Handbook of Drug Metabolism, 2nd Edition. CRC Pres, P.478; and Venkatesh, P. et al. (2007) Biol. Pharm. Bull. 30:1021-2024. 0.625 mg/mL liver microsomes solution was prepared by mixing 2325 μL 100 mM of K-phosphate buffer (pH 7.4) containing 2.5 mM of MgCl2, 1.25 mM of EDTA, and 75 μL microsomes (20 mg/mL) in a vial for each species.
(§3) Positive control compound: (±) Verapamil hydrochloride (Cat No.: V4629; Lot No.: MKBV4993V; Source: Sigma)
40 μL aliquots of the liver microsome/test compound mixture were dispensed into 96-well plate in triplicate and pre-warmed the mixture for 5 minutes at 37° C. Then, 10 μL of 5 mM NADPH solution was added to each well to initiate the reaction, and gently mixed. The samples were incubated at 37° C. with gentle shaking.
(§4) For 0-min samples, 200 μL of ACN containing internal standard was added to 40 μL of liver microsome/test compound mixture, followed by addition of 5 mM NADPH, and mixed gently.
(§5) For negative control: 40 μL of liver microsome/test compound mixture was incubated at 37° C. with gentle shaking for 60 minutes, followed by addition of 200 μL ACN containing 1% FA and internal standard and 10 μL of 5 mM NADPH, mixed gently.
(§6) All samples were centrifuged at 4° C. for 20 minutes at 4,000 rpm. Then, 100 μL of the supernatant from each sample was transferred to a new 96-well plate and 100 μL of ultrapure water containing 1% FA was added to each well, and mixed gently. Samples were analyzed by LC-MS/MS.
(§7) Data Analysis: Peak area ratio (Peak Area of test compound/Peak Area of internal standard) was used to represent the concentration of compound in each sample. The remaining percentage (% Remaining) at appointed time points was calculated versus the concentration of compound at 0 min. The Ln value of the remaining percentage was linearly fitted against the incubation time.
(§8) The half-life and clearance were calculated using the following equations:
(§9) Determined percent of the remaining test compound: % remaining=[area at tx/average areas at t0]×100 (1) % metabolized=[100−% remaining] (2)
(§10) Calculated the half-life (t1/2) using the slope (k) of the log-linear regression from the concentration of remaining parent compound versus time (min) relationship: t1/2 (min)=−ln 2/k. (3)
(§11) Clint, in vitro (mL/min/mg) Clint,in vitro=k/c,(c:Liver microsome concentration in the incubation system) (4)
(§12) Hepatic Clearance (CLh) CLh=Clint,in vivo*Hepatic Blood Flow (mL/min/kg)/(Hepatic Blood Flow (mL/min/kg)+Clint,in vivo) (6)
(§13) Extraction ratio (ER): ER=CLint,in vivo/(Qh+CLint,in vivo)*100,Qh:liver blood flow (7)

Data set [3] is classed as in vitro ADME. The conditions noted are these: extraction ratio, compound at 1 uM; for Liver Microsomal Stability (ER) SD rat: SD rat liver microsomes 0.5 mg/mL; for Liver Microsomal Stability (ER) Beagle dog: beagle dog liver microsomes 0.5 mg/mL; for Liver Microsomal Stability (ER) Mouse: mouse liver microsomes 0.5 mg/mL; for Liver Microsomal Stability (ER) Monkey: monkey liver microsomes 0.5 mg/mL. The procedure: as §1, §2, §3
40 μL aliquots of the liver microsome/test compound mixture were dispensed into 96-well plate in triplicate and pre-warmed the mixture for 5 minutes at 37° C. Then, 10 μL of 5 mM NADPH solution was added to each well to initiate the reaction, and gently mixed. The samples were incubated at 37° C. with gentle shaking. (Final concentrations: compound=1 μM; liver microsomes protein=0.5 mg/mL; MgCl2=2 mM; EDTA=1 mM; ACN=0.1%; DMSO=0.05%).
as §4, §5, §6, §7, §8, §9, §10, §11, §12, §13

Where [4] appears, read: wild type Mpro 17 nM, substrate 40 uM.

On to `CC1(C)[C@@H]2[C@@H](C(=O)N[C@H](C#N)C[C@@H]3CCNC3=O)N(C(=O)[C@@H](NC(=O)C(F)F)C3CC3)C[C@@H]21` [Compound D-2-d], for which the IC50 in data set [1] (setting [4]) is 58.7 nM. Besides, the “Liver Microsomal Stability (ER) Human” value in data set [2] amounted to 0.03. Besides, in data set [3], the “Liver Microsomal Stability (ER) SD rat” value worked out at 0.05, the “Liver Microsomal Stability (ER) Beagle dog” value is listed as 0.05 and the “Liver Microsomal Stability (ER) Mouse” value is listed as 0.18.

As to `CC(C)C[C@H](NC(=O)c1cc2ccccc2[nH]1)C(=O)N1C[C@H]2[C@@H]([C@H]1C(=O)N[C@@H](C#N)C[C@@H]1CCNC1=O)C2(C)C` [Compound G-1-c], in data set [1] (setting [4]), the IC50 came to 964 nM. Moreover, the “Liver Microsomal Stability (ER) Human” value in data set [2] was found to be 0.67. In data set [3], the “Liver Microsomal Stability (ER) SD rat” value turned out to be 0.30, the “Liver Microsomal Stability (ER) Beagle dog” value is recorded as 0.30, the “Liver Microsomal Stability (ER) Monkey” value is reported as 0.58 and the “Liver Microsomal Stability (ER) Mouse” value is on record as 0.27.

For the molecule `Cc1cccc2[nH]c(C(=O)N[C@@H](CC(C)C)C(=O)N[C@@H](C[C@@H]3CCNC3=O)C(=O)CCl)cc12` [Compound A-4-c, (2S)—N-[(2S)-4-chloro-3-oxo-1-[(3S)-2-oxopyrrolidin-3-yl]butan-2-yl]-4-methyl-2-[(4-methyl-1H-indol-2-yl)formamido]pentanamide], the IC50 in data set [1] came to 1120 nM. For the same molecule, in data set [2], the “Liver Microsomal Stability (ER) Human” value is 0.67. Further, in data set [3], the “Liver Microsomal Stability (ER) SD rat” value is given as 0.70, the “Liver Microsomal Stability (ER) Beagle dog” value stood at 0.72, the “Liver Microsomal Stability (ER) Monkey” value stood at 0.69 and the “Liver Microsomal Stability (ER) Mouse” value was 0.81.

Consider `CC(C)C[C@H](NC(=O)C(F)(F)F)C(=O)N1C[C@H]2[C@@H]([C@H]1C(=O)N[C@H](C#N)C[C@@H]1CCNC1=O)C2(C)C` [Compound H-1-c], for which, in data set [1] (setting [4]), the IC50 is 36.7 nM. Besides, the “Liver Microsomal Stability (ER) Human” value in data set [2] is 0.15. In addition, in data set [3], the “Liver Microsomal Stability (ER) SD rat” value is 0.06, the “Liver Microsomal Stability (ER) Beagle dog” value turned out to be 0.02 and the “Liver Microsomal Stability (ER) Mouse” value was found to be 0.44.

As for `COc1cccc2[nH]c(C(=O)N[C@@H](CC(C)C)C(=O)N[C@@H](C[C@@H]3CCNC3=O)C(=O)CCl)cc12` [Compound A-5-c, (2S)—N-[(2S)-4-chloro-3-oxo-1-[(3S)-2-oxopyrrolidin-3-yl]butan-2-yl]-2-[(4-methoxy-1H-indol-2-yl)formamido]-4-methylpentanamide], the IC50 in data set [1] stood at 359 nM. Further, the “Liver Microsomal Stability (ER) Human” value in data set [2] worked out at 0.89. In data set [3], the “Liver Microsomal Stability (ER) SD rat” value was determined as 0.74, the “Liver Microsomal Stability (ER) Beagle dog” value was 0.80, the “Liver Microsomal Stability (ER) Monkey” value is given as 0.79 and the “Liver Microsomal Stability (ER) Mouse” value is recorded as 0.84.

Take `CC(C)C[C@H](NC(=O)c1cc2ccccc2[nH]1)C(=O)N1C[C@H]2[C@@H]([C@H]1C(=O)N[C@H](C(=O)CCl)C(C)(C)C)C2(C)C` [Compound G-3-c]: the 50% inhibitory concentration (IC50) in data set [1] (setting [4]) is more than 10000 nM.

On to `CC1(C)[C@@H]2[C@@H](C(=O)N[C@H](C#N)C[C@@H]3CCNC3=O)N(C(=O)[C@@H](NC(=O)C(F)(F)F)C3CC3)C[C@@H]21` [Compound D-2-a], for which the IC50 in data set [1] (setting [4]) was determined as 24 nM. Further, the “Liver Microsomal Stability (ER) Human” value in data set [2] came to 0.05. Moreover, in data set [3], the “Liver Microsomal Stability (ER) SD rat” value is listed as 0.03, the “Liver Microsomal Stability (ER) Beagle dog” value is listed as −0.04 and the “Liver Microsomal Stability (ER) Mouse” value is on record as 0.13.

Regarding `CC(C)C[C@H](NC(=O)c1cc2ccccc2[nH]1)C(=O)N1C[C@H]2[C@@H]([C@H]1C(=O)N[C@H](C(=O)CCl)C(C)C)C2(C)C` [Compound G-2-c], the IC50 in data set [1] (setting [4]) was more than 2000 nM. Besides, in data set [2], the “Liver Microsomal Stability (ER) Human” value is 0.85. Also, in data set [3], the “Liver Microsomal Stability (ER) SD rat” value was 0.79, the “Liver Microsomal Stability (ER) Beagle dog” value is 0.84 and the “Liver Microsomal Stability (ER) Mouse” value was found to be 0.92.

Turning to `CC(C)C[C@H](NC(=O)c1cc2ccccc2[nH]1)C(=O)N1C[C@H]2[C@@H]([C@H]1C(=O)N[C@H](C=O)C(C)C)C2(C)C` [Compound G-2-a], the IC50 in data set [1] (setting [4]) is more than 2000 nM. In data set [2], the “Liver Microsomal Stability (ER) Human” value stood at 0.54. Further, in data set [3], the “Liver Microsomal Stability (ER) SD rat” value was determined as 0.53, the “Liver Microsomal Stability (ER) Beagle dog” value amounted to 0.56, the “Liver Microsomal Stability (ER) Monkey” value is given as 0.48 and the “Liver Microsomal Stability (ER) Mouse” value is recorded as 0.16.

On to `CC(C)C[C@H](NC(=O)c1cc2c(F)cccc2[nH]1)C(=O)N[C@@H](C[C@@H]1CCNC1=O)C(=O)CCl` [Compound A-3-d, (2S)—N-[(2S)-4-chloro-3-oxo-1-[(3S)-2-oxopyrrolidin-3-yl]butan-2-yl]-2-[(4-fluoro-1H-indol-2-yl)formamido]-4-methylpentanamide], for which the half-inhibitory concentration (IC50) in data set [1] was 335 nM. Further, the “Liver Microsomal Stability (ER) Human” value in data set [2] is 0.84. In data set [3], the “Liver Microsomal Stability (ER) SD rat” value was 0.77, the “Liver Microsomal Stability (ER) Beagle dog” value came to 0.78, the “Liver Microsomal Stability (ER) Monkey” value is listed as 0.72 and the “Liver Microsomal Stability (ER) Mouse” value stood at 0.58.

In the case of `CC1(C)[C@@H]2[C@@H](C(=O)N[C@H](C#N)C[C@@H]3CCCNC3=O)N(C(=O)[C@@H](NC(=O)C(F)F)C3CC3)C[C@@H]21` [Compound D-2-e], the IC50 in data set [1] (setting [4]) was determined as 7.02 nM. Further, in data set [2], the “Liver Microsomal Stability (ER) Human” value came out at 0.09. Further, in data set [3], the “Liver Microsomal Stability (ER) SD rat” value was 0.04, the “Liver Microsomal Stability (ER) Beagle dog” value is given as −0.03 and the “Liver Microsomal Stability (ER) Mouse” value is 0.17.

For `CC(C)C(=O)N[C@H](C(=O)N1C[C@H]2[C@@H]([C@H]1C(=O)N[C@@H](C[C@@H]1CCNC1=O)C(N)=O)C2(C)C)C(C)(C)C` [Compound H-2-b], the IC50 in data set [1] (setting [4]) came out at 6.6 nM. For the same molecule, the “Liver Microsomal Stability (ER) Human” value in data set [2] was determined as 0.18. In data set [3], the “Liver Microsomal Stability (ER) SD rat” value is recorded as 0.37, the “Liver Microsomal Stability (ER) Beagle dog” value turned out to be 0.06 and the “Liver Microsomal Stability (ER) Mouse” value is listed as 0.37.

Turning to `CC(C)C[C@H](NC(=O)c1cc2ccccc2[nH]1)C(=O)N1C[C@H]2[C@@H]([C@H]1C(=O)N[C@H](C=O)C(C)(C)C)C2(C)C` [Compound G-3-a], the IC50 in data set [1] (setting [4]) is more than 10000 nM. The “Liver Microsomal Stability (ER) Human” value in data set [2] is 0.70. Also, in data set [3], the “Liver Microsomal Stability (ER) SD rat” value came to 0.54, the “Liver Microsomal Stability (ER) Beagle dog” value amounted to 0.62 and the “Liver Microsomal Stability (ER) Mouse” value is listed as 0.78.

For `CC1(C)[C@@H]2[C@@H](C(=O)N[C@H](C#N)C[C@@H]3CCNC3=O)N(C(=O)[C@@H](NC(=O)C3CC3)C3CC3)C[C@@H]21` [Compound D-2-c], in data set [1], the IC50 was 69.7 nM.

With `CC(C)C[C@H](NC(=O)c1cc2ccccc2[nH]1)C(=O)N1C[C@H]2[C@@H]([C@H]1C(=O)N[C@H](C#N)C[C@@H]1CCNC1=O)C2(C)C` [Compound G-1-b], the IC50 in data set [1] (setting [4]) came to 377 nM. Moreover, the “Liver Microsomal Stability (ER) Human” value in data set [2] is recorded as 0.38. Besides, in data set [3], the “Liver Microsomal Stability (ER) SD rat” value came out at 0.33, the “Liver Microsomal Stability (ER) Beagle dog” value is 0.33, the “Liver Microsomal Stability (ER) Monkey” value is recorded as 0.51 and the “Liver Microsomal Stability (ER) Mouse” value was 0.16.

The term IC50 denotes the concentration at which inhibition is half-maximal.
